The results in this text go back to patent US20250339391A1, “METHODS FOR EFFECTIVE MANAGEMENT OF PAIN” (South Rampart Pharma, Inc., priority 2024, published 2025).

“Also recorded” adds a separate entry of the source.

Data set [1] in a line: Phase 1 multiple ascending dose (MAD) pharmacokinetics. The format is in vivo, human. The method, then: A two-part randomized, double-blind, placebo-controlled Phase 1 trial was conducted to assess the safety, tolerability, PK and PD of SRP-001 ascending doses (Quotient Sciences, Miami, FL USA). The study was conducted in accordance with the International Council for Harmonisation of Technical Requirements for Pharmaceuticals for Human Use (ICH), Guideline for GCP: Consolidated Guidance (E6), and applicable regulatory requirements(s) including clinical research guidelines established by the Basic Principles defined in the U.S. 21 CFR Parts 50, 56, and 312 and the principles enunciated in the Declaration of Helsinki (revised version Fortaleza 2013). The clinical protocol and informed consent form were reviewed and approved by an Institutional Review Board (IRB; Advarra IRB, 6100 Merriweather Drive, Suite 600, Columbia, MD 21044; Quotient Protocol No. SRP-101 and Quotient Sciences Study No. QSC205130; Quotient Sciences Miami, 3898 NW 7th Street, Miami, FL 33126.). The study comprises a SAD (Part 1) assessment that includes a food effect assessment that contributes data to inform a subsequent MAD (Part 2) dose-ranging study. Safety measurements were collected throughout the study for all subjects. Blood samples were collected to determine the PK parameters of SRP-001. ClinicalTrials.gov identifier: NCT05484414

The test system of another data set is healthy volunteers. Put plainly: Phase 1 safety and tolerability. The format is in vivo, human. The method, then: A randomized, double-blind, placebo-controlled Phase 1 trial (ClinicalTrials.gov identifier: NCT05484414) was conducted to assess the safety, tolerability, food effect, pharmacokinetics (PK), and pharmacodynamics (PD) of single and multiple ascending doses of SRP-001 (Quotient Sciences, Miami FL USA; FIG. 3H and Online Methods). The trial was conducted in accordance with the International Council for Harmonisation of Technical Requirements for Pharmaceuticals for Human Use (ICH), Guideline for GCP: Consolidated Guidance (E6), attained Institutional Review Board approval, and all applicable regulatory requirements for Phase 1, First in Human clinical trials. Safety measurements and plasma samples to determine PK parameters were collected throughout the study for all subjects and reviewed by the Safety Review Committee. PK stopping criteria were established to assure that systemic exposure to SRP-001 was less than or equal to the systemic exposure achieved at the NOAEL doses in the 28-day repeat-dose toxicology studies in the rat and dog. The trial's Safety Advisory Committee has approved the publication of the Phase 1 results.
A two-part randomized, double-blind, placebo-controlled Phase 1 trial was conducted to assess the safety, tolerability, PK and PD of SRP-001 ascending doses (Quotient Sciences, Miami, FL USA). […]
Safety—Holter (continuous ECG) Monitoring: NHVs also underwent continuous ECG Holter monitoring from at least 1 h prior to dosing until 24 h post-dose, and resulting measurements were monitored consistently. […] Where any scheduled rest times were missed, where there was less than a 10-min rest period, or where the final 5 min of a rest period was interrupted (for example, by subject movement or loss of leads), a protocol deviation was recorded, and the Holter provider was informed. Loss of leads or interruption of the recording outside of the scheduled rest times was not considered a protocol deviation but was recorded in the source. […]

The target of the next data set is T1, hERG current (Homo sapiens, UniProt Q12809).
T1 construct: expressed in transfected cells; host or cells: human embryonic kidney cells
T1 sequence (Q12809 whole entry): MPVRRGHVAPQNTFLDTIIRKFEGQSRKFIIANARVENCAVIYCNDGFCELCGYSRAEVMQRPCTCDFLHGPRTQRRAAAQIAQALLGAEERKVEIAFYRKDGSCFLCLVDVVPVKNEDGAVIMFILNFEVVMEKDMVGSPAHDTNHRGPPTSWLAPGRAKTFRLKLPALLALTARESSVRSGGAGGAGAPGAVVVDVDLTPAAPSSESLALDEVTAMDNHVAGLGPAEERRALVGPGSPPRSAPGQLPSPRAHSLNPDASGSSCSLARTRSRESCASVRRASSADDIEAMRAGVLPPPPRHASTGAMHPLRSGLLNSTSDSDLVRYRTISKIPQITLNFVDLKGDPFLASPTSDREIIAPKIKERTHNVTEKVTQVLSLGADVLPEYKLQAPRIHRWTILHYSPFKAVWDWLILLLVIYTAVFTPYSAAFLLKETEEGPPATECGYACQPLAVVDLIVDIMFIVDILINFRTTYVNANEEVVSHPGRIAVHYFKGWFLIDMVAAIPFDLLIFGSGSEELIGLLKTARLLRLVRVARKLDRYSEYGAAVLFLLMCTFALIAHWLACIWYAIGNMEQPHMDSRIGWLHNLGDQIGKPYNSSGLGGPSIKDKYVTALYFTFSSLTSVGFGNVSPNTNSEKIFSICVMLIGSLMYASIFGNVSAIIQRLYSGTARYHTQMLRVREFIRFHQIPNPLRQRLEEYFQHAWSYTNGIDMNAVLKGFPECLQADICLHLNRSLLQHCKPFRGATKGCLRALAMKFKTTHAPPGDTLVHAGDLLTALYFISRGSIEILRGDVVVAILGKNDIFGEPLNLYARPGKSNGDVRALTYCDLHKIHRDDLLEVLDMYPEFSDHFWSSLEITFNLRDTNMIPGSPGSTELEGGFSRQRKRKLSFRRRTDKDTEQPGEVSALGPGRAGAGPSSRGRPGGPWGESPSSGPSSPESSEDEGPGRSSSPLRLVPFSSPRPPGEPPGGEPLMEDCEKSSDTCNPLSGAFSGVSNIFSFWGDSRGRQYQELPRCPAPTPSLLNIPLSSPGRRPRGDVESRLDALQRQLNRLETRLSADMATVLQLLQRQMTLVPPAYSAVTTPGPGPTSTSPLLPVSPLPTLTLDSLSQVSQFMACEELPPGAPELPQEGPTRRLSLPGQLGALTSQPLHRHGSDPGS
Put plainly: In vitro hERG cardiotoxicity assay in human embryonic kidney cells. The data set is classed as cell-based. On the procedure:
The effects of SRP-001 on hERG current amplitude at physiologic temperatures were evaluated over a nominal concentration range of 0.1 μM to 100M. A vehicle group (10% DMSO) was included in the study for comparison, and dofetilide (10 nM) was used as a reference substance. The vehicle and positive controls indicated appropriate sensitivity of the test systems. […] Next, the potential acute effects of oral SRP-001 on cardiovascular function in conscious telemetered beagle dogs was done using a Latin Square design; 4 male naïve beagle dogs each received vehicle (10% DMSO: 10% labrasol: 80% PEG400) and three doses (30, 90, and 150 mg/kg) of SRP-001 nanosuspension by oral gavage. […] A single dose was administered on the day of dosing, and a washout period of seven days was allowed between doses. One-min means of hemodynamic parameters, as well as ECG parameters and body temperature, were measured for a period of at least 24 h. One-min tracings of the ECGs were obtained at 15 min prior to dosing and at 30 min, 1, 2, 4, 8, 12, and 24 h post-dose. Qualitative evaluation of the ECGs was done by a board-certified veterinary cardiologist.

Data set [2] in a line: Genotoxicity battery, weight of the evidence. To be noted: Ames, chromosomal aberration, micronucleus and Comet assays. The method, then: To transition SRP-001 into the clinic for human use, a full set of in vivo and in vitro genotoxicity studies were performed to assess the potential genotoxicity of SRP-001.
To further evaluate the potential genotoxicity of SRP-001 and determine the validity of the in vitro findings, a second in vivo assay, a GLP-compliant Comet assay, was conducted in accordance with ICH S2(R1) Guidance on Genotoxicity Testing and Data Interpretation for Pharmaceuticals Intended for Human Use. […] SRP-001 was tested to evaluate its mutagenic potential by measuring its ability to induce reverse mutations at selected loci of several strains of Salmonella typhimurium (S. typhimurium) and at the tryptophan locus of Escherichia coli (E. coli) strain WP2 uvrA in the presence and absence of an exogenous metabolic activation system (Bioreliance, Rockville, MD USA). Dimethyl sulfoxide (10% DMSO) was used as the vehicle. The dose levels tested in the preliminary toxicity assay were 6.67, 10.0, 33.3, 66.7, 100, 333, 667, 1000, 3333, and 5000 μg per plate. No precipitate was observed. […] The dose levels tested in the mutagenicity assay were 100, 333, 667, 1000, 3333, and 5000 μg per plate. […] In the preliminary toxicity assay, the doses tested ranged from 0.0405 to 405 μg/mL (1 mM), which was the limit dose for this assay (Bioreliance, Rockville, MD USA).

Take `CCN(CC)C(=O)c1ccccc1S(=O)(=O)NCC(=O)Nc1ccc(O)cc1` [SRP-001, N,N-diethyl-2-[[2-(4-hydroxyanilino)-2-oxo-ethyl]sulfamoyl]benzamide]: the “T1/2, geometric mean” value is 3.06 h in data set [1] (MAD 500 mg, Day 1); 4.05 h in data set [1] (MAD 1,000 mg, Day 1); 9.77 h in data set [1] (MAD 1,000 mg, Day 5). Further, the “T1/2, arithmetic mean” value in data set [1] (MAD cohorts) came to 5.57 h. Besides, the “PK parameters on Day 5 versus Day 1” value in data set [1] (Phase 1 MAD cohort) is listed as “demonstrated a decrease”. Further, in data set [1] (human, blood, summary aspect, read-out: half-life in said subject), the half-life fell in the range of 4.9 to 9.8 h. The emesis entry in the data set with healthy volunteers (Phase 1 MAD cohort) is listed as “no emesis was reported”. Further, the “safety assessments (vital signs, ECG, laboratory tests)” value in the data set with healthy volunteers (SAD and MAD cohorts) is reported as “revealed no abnormalities”. The “tolerability / serious adverse events” value in the data set with healthy volunteers (oral nanosuspension, SAD and MAD cohorts, 42 subjects on SRP-001) is on record as “no serious adverse events (SAEs) reported”. On hERG current (0.1 μM to 100 μM), the “hERG signal / blocker class” value is listed as “weak blocker of hERG current; also recorded: absent relevant signal”. On hERG current (100 μM, highest concentration tested, physiologic temperatures), the “block of hERG current” value is 21.4±3.9%. The “genotoxicity, overall conclusion” value in data set [2] is reported as “not genotoxic; also recorded: negative for genotoxicity”.
